In patent publication US20220412989A1, “COMPOSITIONS AND METHODS FOR DETECTING CELLS UNDERGOING FERROPTOSIS USING AN ANTIBODY” (THE TRUSTEES OF COLUMBIA UNIVERSITY IN THE CITY OF NEW YORK, priority 2020, published 2022):

Legend:
Assay type in all cases: cell-based, human
HT-1080 cells [1] = assay: Nucleus area by immunofluorescence (DAPI, CellProfiler)
Description: HT-1080 (ATCC Cat #CRL-7951, RRID:CVCL_0317), A-673, SK-BR-3, SK-LMS-1 and Huh-7 cells were treated with 1 μM RSL3 for 4 h, 15 μM erastin for 8 h, 10 μM IKE for 8 h, 15 μM FINO2 for 8 h, 10 μM FIN56 for 8 h, 100 μM tBuOOH for 8 h, 1 μM staurosporine (STS) for 6 h, 2 μM camptothecin (CPT) for 24 h, 1 μM RSL3+5 μM Fer-1 for 4 h and 10 μM IKE+5 μM Fer-1 for 8 h on poly-lysine-coated cover slips (Sigma Aldrich P4832) in 24-well plate. Media were taken out and the cells were gently washed with PBS^++ (PBS with 1 mM CaCl2) and 0.5 mM MgCl2) twice. The cells were fixed and permeabilized by adding 200 μL/well of 4% paraformaldehyde (PFA) in PBS with 0.1% Triton X-100 (PBT), and incubated at room temperature for 18 min. The cells were then washed with PBT three times. Then the cells were blocked with 5% goat serum (ThermoFisher 50197Z) in PBT for 1 h at room temperature. The cells were incubated with purified mouse monoclonal antibodies (1:5 dilution), mouse mAb 3F3 FMA (1:500 dilution), Transferrin Receptor/CD71 Monoclonal Antibody, Clone: H68.4, Invitrogen (Thermo Fisher Scientific Cat #13-6800, RRID:AB_2533029, 1:250 dilution), Cd71 (D7G9X) XP® Rabbit mAb (Cell Signaling Technology Cat #13113, RRID:AB_2715594, 1:100 dilution), CD71 (3B8 2A1) (Santa Cruz Biotechnology Cat #sc-32272, RRID:AB_627167, 1:50 dilution), Tom20 (FL-145) (Santa Cruz Biotechnology Cat #sc-11415, RRID:AB_2207533, 1:250 dilution), PDI antibody [RL90]—ER Marker (Abcam Cat #ab2792, RRID:AB_303304, 1:100 dilution), Gm130 (D6B1) XP® Rabbit mAb (Cell Signaling Technology Cat #12480, RRID:AB_2797933, 1:3200 dilution), Anti-Malondialdehyde antibody (Abcam Cat #ab6463, RRID:AB_305484, 1:400 dilution), Anti-4 Hydroxynonenal antibody (Abcam Cat #ab46544, RRID:AB_722493, 1:50 dilution), ACSL4 Antibody (F-4) (Santa Cruz Biotechnology Cat #sc-365230, RRID:AB_10843105, 1:50 dilution), mouse mAb 1F83 (1:100 dilution), which specifically recognizes the malondialdehyde (MDA)-lysine adduct 4-methyl-1,4-dihydropyridine-3,5-dicarbaldehyde (MDHDC) (Yamada et al., 2001), in PBT with 1% BSA and 5% goat serum overnight at 4° C. The cells were washed with PBT for 5 min three times. The cells were incubated with Goat anti-Mouse IgG (H+L) Highly Cross-Adsorbed Secondary Antibody, Alexa Fluor 594 (Thermo Fisher Scientific Cat #A-11032, RRID:AB_2534091, 1:200 dilution) or Goat anti-Rabbit IgG (H+L) Highly Cross-Adsorbed Secondary Antibody, Alexa Fluor 488 (Thermo Fisher Scientific Cat #A-11034, RRID:AB_2576217, 1:200 dilution) at room temperature for 1 h. The cells were washed with PBT for 5 min three times. ProLong Diamond antifade mountant with DAPI (ThermoFisher P36962) was added to stain the nucleus. All images were captured on a Zeiss LSM 800 confocal microscope at Plan-Apochromat 63x/1.40 Oil DIC objective with constant laser intensity for all samples. When applicable, line-scan analysis was performed on representative confocal microscopy images using Zeiss LSM software to qualitatively visualize fluorescence overlap.
The quantification of the intensity of antibodies was analyzed using CellProfiler 3.1.8 (Carpenter et al., 2006) (CellProfiler Image Analysis Software, RRID:SCR_007358). Nuclei were firstly identified as primary objects using global minimum cross entropy strategy. […] Then mean intensities and size areas of nuclei, cytoplasm and plasma membranes were then measured and reported. […]

HT-1080 cells [2] = assay: Nucleus area by high-content analysis
Description: For the screening with five technical replicates, HT-1080 cells were washed with PBS, trypsinized and resuspended in cell culture medium. The cell suspension (2,000 cells in 50 μl per well) was dispensed into collagen (Sigma-Aldrich, St. Louis, Mass., USA) pre-coated 384-well plates (PerkinElmer 384-well CellCarrierUltra™). 24 h after seeding, medium was exchanged to medium containing 0.3 μM RSL3 (1 mM stock solution) dissolved in 100% dimethyl sulfoxide (DMSO) or DMSO alone. 50 μl medium with 0.3 μM RSL3/DMSO was added per well. The cells were then incubated (37° C.; 5% CO2) for 2.5 h prior to fixation and antibody staining. […] Finally, plates were recorded using the automated Operetta® microscope with the 20× high NA objective for high-resolution images (PerkinElmer, USA). For quantification, three images of each condition were recorded using three channels (Hoechst, Alexa488, TRITC). […] Quantification on cell number, cytoplasmic intensity, nucleus intensity and spot number per cell was performed using the Columbus Software (PerkinElmer, USA).
Multiparametric image analysis was performed using Columbus Software 2.8.0 (PerkinElmer). […] In a next step we have calculated the morphology and Alexa488 fluorescence intensity in each cell region (nucleus and cytoplasm). […] Each spot was detected as a small region within the corresponding image by having a higher intensity than its surrounding area. […]

HT-1080 cells [3] = assay: Cell death after RSL3 incubation; details: 1 μM RSL3, 4 h incubation

CC(C)Oc1ccc(C(=O)Cn2ccnc2)cc1-n1c(CN2CCN(C(=O)COc3ccc(Cl)cc3)CC2)nc2ccccc2c1=O [IKE, imidazole ketone erastin]
nuclei shrank by (mean nucleus area) (HT-1080 cells [1]; 10 μM IKE, 8 h incubation): 12%

COC(=O)c1ccc([C@@H]2c3[nH]c4ccccc4c3C[C@@H](C(=O)OC)N2C(=O)CCl)cc1 [RSL3, (1S, 3R)-RSL3]
decrease of average nucleus area vs DMSO group (HT-1080 cells [2]; RSL3-treated plates 4-6): 17% | average nucleus area (HT-1080 cells [2]; RSL3-treated plates 4-6 (DMSO group 240 μm^2)): 200 μm^2 | HT-1080 cells died (HT-1080 cells [3]): 30% | nuclei shrank by (mean nucleus area) (HT-1080 cells [1]; 1 μM RSL3, 4 h incubation): 27%

CCOc1ccccc1-n1c(C(C)N2CCN(C(=O)COc3ccc(Cl)cc3)CC2)nc2ccccc2c1=O (centres unmarked) [erastin]
nuclei shrank by (mean nucleus area) (HT-1080 cells [1]; 15 μM erastin, 8 h incubation): 21%

O=S(=O)(NC1CCCCC1)c1ccc2c(c1)C(=NO)c1cc(S(=O)(=O)NC3CCCCC3)ccc1-2 [FIN56, ferroptosis inducer 56]
nuclei shrank by (mean nucleus area) (HT-1080 cells [1]; 10 μM FIN56, 8 h incubation): 17%

CC1(CCO)CC2(CCC(C(C)(C)C)CC2)OO1 (centres unmarked) [FINO2, ferroptosis inducer endoperoxide]
nuclei shrank by (mean nucleus area) (HT-1080 cells [1]; 15 μM FINO2, 8 h incubation): 49%
